In patent US9301951B2 (Ardelyx, Inc., priority 2010, dated 2016):

Columns and labels:
NaPi2b = test: Competition with phosphate: Pi uptake assay repeated at 2.1 vs 0.1 mM phosphate; assay type: cell-based; conditions: potency at 2.1 vs 0.1 mM phosphate
Text: In certain preferred embodiments, the phosphate transport inhibitors of the present invention are not competitive inhibitors with respect to phosphate of Na/phosphate co-transport. In certain other preferred embodiments, the phosphate transport inhibitors of the invention are non-competitive inhibitors. Non-competitive inhibitors maintain their degree of inhibition irrespective of the local phosphate concentration. This feature is an important aspect in providing an efficient blockade of intestinal transport in postprandial state, where the local concentration of dietary phosphate can attain concentration as high as 10 mM. It is believed that competitive inhibitors are too sensitive to local phosphate concentration and unable to block phosphate uptake following a high phosphorus meal. Various methods are available for determining whether a phosphate transport inhibitor is non-competitive or competitive. For example, a phosphate uptake assay can be performed and the IC50 values for a compound at different phosphate concentrations can be determined (e.g., “Enzyme kinetics”, I. Segel, 1975, John-Wiley & Sons, p. 123). IC50 values for non-competitive inhibitors will remain the same or similar with respect to the phosphate concentration, whereas IC50 values for competitive inhibitors will increase (i.e. lose potency) as phosphate concentration increases. […]

Sprague-Dawley rats = test: In vivo bolus phosphorus challenge (serum phosphate elevation); conditions: rat; oral; drug dose 30; phosphate bolus 15 min after compound; serum 30 min post bolus
Method: By pretreating animals with a low phosphorus diet followed by the subsequent dosing of a phosphorus bolus, serum phosphorus levels were monitored after 30 minutes as a surrogate for intestinal phosphorus absorption. […] The in vivo bolus phosphorus challenge model used here mimics this model in rats.
Male, 7-week-old Sprague-Dawley rats (Charles-River laboratories international, Hollister, Calif.) were allowed to acclimatize for a minimum of 3 days before switching to a synthetic low-phosphorus diet (TD.85010, Harlan Teklad, Madison, Wis.) which contains 0.1% phosphorus and 0.6% calcium. At day 5, testing compounds or vehicle alone (as indicated) were orally administered at the indicated dose in a volume of 5 ml/kg, followed by a bolus gavage of monobasic sodium phosphate (1 mmol in 1 ml) 15 min after compound dosing. Serum was collected via retroorbital bleeding 30 min post phosphate bolus and phosphate levels were determined utilizing an ACE ALERA blood chemistry analyzer (Alfa Wassermann Diagnostic Technologies, West Caldwell, N.J.).
The extent of inhibition by test compounds on the elevation of serum phosphate levels in response to the bolus of phosphorus is shown in Table 12 (data are expressed as % Inhibition, with 6-10 animals per data point). The differences between groups were evaluated by one-way analysis of variance with Dunnett's post hoc tests.

rat NaP2b (SLC34A2) = molecular target: T1, rat NaP2b (SLC34A2) (Rattus norvegicus, UniProt Q9JJ09); test: Inhibition of NaP2b-mediated Pi (33P) uptake in transfected HEK293 cells, rat NaP2b; assay type: cell-based; conditions: HEK293 cells transfected with rat NaP2b, 100 uM phosphate, 0.1 nM to 30 uM, read-out: pIC50 range for rat Nap2b (converted)
T1 construct: host or cells: HEK293
T1 sequence (Q9JJ09 1-695): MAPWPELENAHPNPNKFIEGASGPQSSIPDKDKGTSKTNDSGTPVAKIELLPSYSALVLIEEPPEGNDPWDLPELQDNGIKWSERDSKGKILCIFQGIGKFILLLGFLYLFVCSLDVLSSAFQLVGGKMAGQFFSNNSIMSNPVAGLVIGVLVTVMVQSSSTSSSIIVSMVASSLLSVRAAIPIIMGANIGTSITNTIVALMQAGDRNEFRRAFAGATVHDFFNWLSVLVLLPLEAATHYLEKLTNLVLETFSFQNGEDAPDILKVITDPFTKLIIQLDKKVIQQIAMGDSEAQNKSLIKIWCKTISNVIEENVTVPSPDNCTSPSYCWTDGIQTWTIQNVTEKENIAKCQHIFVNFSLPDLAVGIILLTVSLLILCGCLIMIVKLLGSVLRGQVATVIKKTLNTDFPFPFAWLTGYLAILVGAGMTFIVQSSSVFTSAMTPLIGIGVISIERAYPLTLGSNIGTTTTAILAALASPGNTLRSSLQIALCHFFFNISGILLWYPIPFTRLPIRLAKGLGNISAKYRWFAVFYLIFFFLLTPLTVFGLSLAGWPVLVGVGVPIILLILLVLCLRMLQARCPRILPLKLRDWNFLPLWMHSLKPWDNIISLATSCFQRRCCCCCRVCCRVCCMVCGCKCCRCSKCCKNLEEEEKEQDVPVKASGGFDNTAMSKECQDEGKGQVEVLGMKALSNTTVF
Method in brief: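 HEK293 cells transiently transfected with rat NaP2b; 33P-phosphate uptake measured in sodium or choline buffer (100 uM KH2PO4, PiT-silencing agent, pH 7.4) with compound at twelve concentrations, 0.1 nM–30 uM, in duplicate. Lysed cells counted by scintillation; pIC50 derived from concentration-response.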

[1] = tested on: 5/6 nephrectomy (5/6Nx) rat model of CKD; test: In vivo evaluation in CKD rats (5/6 nephrectomy, 0.9% P diet, calcitriol); conditions: study 1, drug in chow, 2 weeks
Method: To assess the ability of selected example compounds to impact the progression of chronic kidney disease (CKD), 5/6 nephrectomy (5/6Nx) rat model of CKD was used. […] 5/6 Nx rats were obtained from Charles River Labs (CRL, Hollister, Calif.). Upon arrival, the surgeries and extent of kidney damage in the animals were assessed by measuring serum creatinine, P, Ca, and BUN. Based on this analysis, rats with inconsistent kidney function were removed from the study and the remainder of the cohort was divided in to evenly stratified test groups. The remaining animals were then placed on the same synthetic diet used in the drug-in-chow studies (Example 350), except the P levels were adjusted to 0.9% P. Drugs are blended into this chow to achieve the required dosing rate. At this time, rats were also started on an activated Vitamin D regimen in which they were injected intraperitoneally with calcitriol at 80 ng/kg three times a week. Once a week, serum was collected via retro orbital bleeding for analysis of serum P and creatinine utilizing an ACE ALERA blood chemistry analyzer. […] Unless otherwise indicated, the data shown is from the serum collected at 2 weeks after initiation of the treatment regimen. In addition, for study #3, during the third week of the study, the animals were placed in metabolic cages for two days, and urine collected for the final 24 hours.

[2] = Stability of compounds in simulated gastric fluid (SGF); assay type: in vitro ADME; conditions: simulated gastric fluid (USP, 3 mg/mL pepsin), 1-20 μM, incubation time 6 hr, relative to t=0
Method: (§1) Test compounds were incubated at 1-20 μM in simulated gastric fluid (SGF; standard USP solution with 3 mg/mL pepsin) or simulated intestinal fluid (SIF; standard USP solution with 3 mg/mL pancreatin) for 3 hr or 6 hr. HPLC-UV or HPLC-MS were used to determine test compound levels using peak area %. Results (Table 14) were reported as the percentage of test compound remaining after incubation in a given condition relative to test compound present at t=0 in the same condition.

[3] = Stability of compounds in simulated intestinal fluid (SIF); assay type: in vitro ADME; conditions: simulated intestinal fluid (USP, 3 mg/mL pancreatin), 1-20 μM, incubation time 6 hr, relative to t=0
Method: as §1

Compound	Competitive with respect to Pi? (NaPi2b)	% Inhibition of Serum P elevation (Sprague-Dawley rats)	IC50 (rat NaP2b (SLC34A2))	Ser CRE [1]	Ser P [1]	FGF23, pg/mL ([1]; serum)	% remaining, SGF [2]	% remaining, SIF [3]
O=C(O)CCSCc1cccc(C(=O)Nc2ccc(N3CCCCC3)cc2-c2cc(C(=O)NCc3cccc(C(F)(F)F)c3)ccn2)c1 [Example 1.1, 3-(3-((2-(4-((3-(trifluoromethyl)benzyl)carbamoyl)pyridin-2-yl)-4-(piperidin-1-yl)phenyl)carbamoyl)-benzylthio)propanoic acid]	No	20-30%	1000 to 7940 nM					
CCN(CC)c1ccc(NC(=O)c2cccc(C(=O)N(C)CCN3CCOCC3)c2)c(-c2cc(C(=O)NCc3cccc(C(F)(F)F)c3)ccn2)c1 [Example 25, N1-(4-(Diethylamino)-2-(4-((3-(trifluoromethyl)benzyl)carbamoyl)pyridin-2-yl)phenyl)-N3-methyl-N3-(2-morpholinoethyl)isophthalamide]			< 1000 nM	1.3 mg/dL	10 mg/dL	~10,000 pg/mL	>80%	80%
